The supplement of paper PMC10307832

Assays:
Assay in all cases: relative viability (nuclei count vs DMSO), 5 days (fraction); higher = more cells survive
[1] = compound: Cc1ccc(C(=O)Nc2cccc(C(F)(F)F)c2)cc1Nc1cncc(C(N)=O)c1 [ALW-II-49-7] + CCNC(=O)c1noc(-c2cc(C(C)C)c(O)cc2O)c1-c1ccc(CN2CCOCC2)cc1 [Luminespib] (partner 0.01 µM)
Outline: (§1)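 One day after seeding in 1536-well plates, lung cancer cell lines were dosed by pin tool. Dosing was either single-drug or a fixed anchor-drug dose plus five library-drug doses (not always all listed) in √10 steps. After 5 days, nuclei were stained in one fix-and-stain step and counted on 4× images, and relative viability is the nuclei count of treated wells over that of vehicle wells, given as the median of duplicate plates.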

[2] = compound: Cc1ccc(C(=O)Nc2cccc(C(F)(F)F)c2)cc1Nc1cncc(C(N)=O)c1 [ALW-II-49-7] + N=C(N)NC(=N)NCCc1ccccc1 [Phenformin] (partner 250 µM)
Outline: as §1

[3] = compound: Cc1nc(Nc2ncc(C(=O)Nc3c(C)cccc3Cl)s2)cc(N2CCN(CCO)CC2)n1 [Dasatinib] + COc1cc2c(Oc3ccc(NC(=O)C4(C(=O)Nc5ccc(F)cc5)CC4)cc3F)ccnc2cc1OCCCN1CCOCC1 [Foretinib] (partner 0.25 µM)
Outline: as §1

[4] = compound: Cc1nc(Nc2ncc(C(=O)Nc3c(C)cccc3Cl)s2)cc(N2CCN(CCO)CC2)n1 [Dasatinib] + CS(=O)(=O)N1CCN(Cc2cc3nc(-c4cccc5[nH]ncc45)nc(N4CCOCC4)c3s2)CC1 [Pictilisib] (partner 1 µM)
Outline: as §1

Cell Line | relative viability ([1]; first compound 0.08 µM) | relative viability ([1]; first compound 0.253 µM) | relative viability ([1]; first compound 0.8 µM) | relative viability ([1]; first compound 2.53 µM) | relative viability ([1]; first compound 8 µM) | relative viability ([2]; first compound 0.08 µM) | relative viability ([2]; first compound 0.253 µM) | relative viability ([2]; first compound 0.8 µM) | relative viability ([2]; first compound 2.53 µM) | relative viability ([2]; first compound 8 µM) | relative viability ([3]; first compound 0.005 µM) | relative viability ([3]; first compound 0.01581 µM) | relative viability ([3]; first compound 0.05 µM) | relative viability ([3]; first compound 0.1581 µM) | relative viability ([3]; first compound 0.5 µM) | relative viability ([4]; first compound 0.005 µM) | relative viability ([4]; first compound 0.01581 µM) | relative viability ([4]; first compound 0.05 µM) | relative viability ([4]; first compound 0.1581 µM) | relative viability ([4]; first compound 0.5 µM)
201T | 1.06 | 0.907 | 1.07 | 0.993 | 1.09 | 0.43 | 0.456 | 0.456 | 0.477 | 0.414 | 0.945 | 0.883 | 0.816 | 0.531 | 0.346 | 0.664 | 0.517 | 0.627 | 0.521 | 0.383
A549 |  |  |  |  |  | 0.19 | 0.125 | 0.117 | 0.0978 | 0.201 | 0.876 | 0.817 | 0.59 | 0.3 | 0.119 | 0.388 | 0.257 | 0.3 | 0.134 | 0.0986
A-427 | 0.728 | 0.736 | 0.875 |  | 0.769 | 0.216 | 0.305 | 0.316 | 0.357 | 0.27 | 0.971 | 1.04 | 0.974 | 0.694 | 0.599 | 0.705 | 0.674 | 0.663 | 0.511 | 0.461
ABC-1 | 0.472 | 0.535 | 0.718 | 0.355 | 0.496 | 0.3 | 0.244 | 0.249 | 0.26 | 0.262 | 1.08 | 0.906 | 0.948 | 0.692 | 0.487 | 0.937 | 0.625 | 0.659 | 0.644 | 0.506
BEN | 0.682 | 0.458 | 0.509 | 0.521 | 0.24 | 0.33 | 0.264 | 0.25 | 0.233 | 0.287 | 0.682 | 0.513 | 0.35 | 0.366 | 0.291 | 0.446 | 0.37 | 0.323 | 0.297 | 0.294
CAL-12T | 0.193 | 0.293 | 0.517 | 0.285 | 0.38 | 0.543 | 0.498 | 0.603 | 0.627 | 0.538 | 1.18 | 1.04 | 1.23 | 0.66 | 0.532 | 0.303 | 0.586 | 0.337 | 0.223 | 0.128
COR-L23 | 0.651 | 0.465 | 0.521 | 0.774 | 0.808 | 0.461 | 0.448 | 0.426 | 0.462 | 0.363 | 0.915 | 0.904 | 0.829 | 0.535 | 0.549 | 0.714 | 0.608 | 0.744 | 0.34 | 0.207
COR-L 105 | 0.745 | 0.646 | 0.845 | 0.72 | 0.879 | 0.423 | 0.48 | 0.471 | 0.466 | 0.47 | 0.786 | 0.955 | 0.64 | 0.377 | 0.264 | 0.359 | 0.383 | 0.316 | 0.308 | 0.245
Calu-6 |  |  |  |  |  |  |  |  |  |  | 0.738 | 0.702 | 0.633 | 0.513 | 0.469 | 0.732 | 0.65 | 0.742 | 0.604 | 0.527
ChaGo-K-1 | 0.529 | 0.664 | 0.544 | 0.444 | 0.438 | 0.48 | 0.584 | 0.465 | 0.46 | 0.401 | 0.922 | 0.881 | 0.874 | 0.725 | 0.667 | 0.435 | 0.761 | 0.774 | 0.649 | 0.626
EBC-1 |  |  |  |  |  |  |  |  |  |  | 0.106 |  | 0.0991 | 0.121 | 0.0976 | 0.329 | 0.231 | 0.216 | 0.181 | 0.204
EKVX | 0.679 | 0.812 | 0.825 | 0.903 | 0.803 | 0.233 | 0.229 | 0.215 | 0.261 | 0.224 | 0.757 | 0.84 | 0.753 | 0.455 | 0.135 | 0.449 | 0.231 | 0.338 | 0.181 | 0.101
EMC-BAC-2 | 1.07 | 1.14 | 1.22 | 1.06 | 0.998 | 0.426 | 0.513 | 0.505 | 0.454 | 0.338 | 0.862 | 0.733 | 0.573 | 0.297 | 0.242 | 0.455 | 0.344 | 0.327 | 0.243 | 0.185
EPLC-272H | 0.218 |  | 0.324 | 0.312 | 0.276 | 0.29 |  | 0.23 | 0.342 | 0.303 | 0.769 | 0.631 | 0.634 | 0.214 | 0.127 | 0.312 | 0.354 | 0.276 | 0.221 | 0.147
H3255 | 1.02 | 0.851 | 0.972 | 0.876 | 0.648 | 0.442 | 0.394 | 0.373 | 0.331 | 0.329 | 1.02 | 0.822 | 0.726 | 0.944 | 0.352 | 0.474 | 0.446 | 0.342 | 0.234 | 0.152
HARA | 0.465 | 0.655 | 0.545 | 0.833 | 1.17 | 0.452 | 0.476 | 0.345 | 0.461 | 0.482 | 0.826 | 0.504 | 0.541 | 0.207 | 0.136 | 0.204 | 0.259 | 0.346 | 0.157 | 0.0728
HCC-15 | 0.172 | 0.302 | 0.319 | 0.304 | 0.391 | 0.488 | 0.433 | 0.456 | 0.544 | 0.399 | 1.09 | 0.919 | 0.876 | 0.719 | 0.57 | 0.69 | 0.567 | 0.681 | 0.486 | 0.502
